Reference: ChEMBL document CHEMBL6153137, “Design, Synthesis, and Biological Evaluation of Novel Orally Available Covalent CDK12/13 Dual Inhibitors for the Treatment of Tumors” (J Med Chem, 2025)
Activity calls are given as the source filed them. The rule behind the calls is not given here.

Tests used:
[1] = target: Cytochrome P450 2D6 (Homo sapiens, UniProt P10635); assay: Inhibition of CYP2D6 in human liver microsomes assessed as inhibition of dextromethorphan-O-demethylation incubated for 10 mins in presence of NADPH by LC-MS/MS analysis; assay type: ADME, Microsome
Cytochrome P450 2D6, sequence (P10635 whole entry): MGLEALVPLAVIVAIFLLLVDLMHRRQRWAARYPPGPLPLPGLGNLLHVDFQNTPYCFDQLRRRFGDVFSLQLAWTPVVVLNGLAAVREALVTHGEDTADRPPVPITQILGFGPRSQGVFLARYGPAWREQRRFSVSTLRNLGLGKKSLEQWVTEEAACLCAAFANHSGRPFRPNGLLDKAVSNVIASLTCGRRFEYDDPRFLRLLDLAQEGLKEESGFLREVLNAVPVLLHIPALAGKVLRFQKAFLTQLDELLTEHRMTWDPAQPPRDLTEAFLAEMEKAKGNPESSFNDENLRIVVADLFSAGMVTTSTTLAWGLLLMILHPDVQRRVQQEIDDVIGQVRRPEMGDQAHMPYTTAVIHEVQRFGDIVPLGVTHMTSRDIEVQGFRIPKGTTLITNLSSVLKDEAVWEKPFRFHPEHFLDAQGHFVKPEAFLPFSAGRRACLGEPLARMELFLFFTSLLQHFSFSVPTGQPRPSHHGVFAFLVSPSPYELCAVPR

[2] = Toxicity against Balb/c mouse xenografted with human SUM149PT cells assessed as body weight at 30 to 60 mg/kg, po administered once daily via gavage and measured every 3 days for 3 weeks; assay type: organism-based; settings: in vivo, 504 h, dose 30-60 mg/kg
[3] = Volume of distribution at steady state in Sprague-Dawley rat at 1 mg/kg, iv measured for 24 hrs by LC-MS/MS analysis; assay type: ADME, organism-based; settings: in vivo, read-out: Vdss
[4] = Cmax in Balb/c mouse xenografted with human MV4-11 cells at 30 mg/kg, po administered once daily via gavage; assay type: ADME, organism-based; settings: in vivo
[5] = target: CDK3/Cyclin E (Homo sapiens) (UniProt P24864+Q00526); assay: Inhibition of human recombinant N-terminal GST-tagged CDK3/N-terminal 6X His-tagged Cyclin E1 expressed in HEP Sf9 cells using ATP as substrate at 2 uM measured after 60 mins by ADP-Glo reagent based luminescence analysis
CDK3/Cyclin E (Homo sapiens), sequence (P24864 whole entry, looked up): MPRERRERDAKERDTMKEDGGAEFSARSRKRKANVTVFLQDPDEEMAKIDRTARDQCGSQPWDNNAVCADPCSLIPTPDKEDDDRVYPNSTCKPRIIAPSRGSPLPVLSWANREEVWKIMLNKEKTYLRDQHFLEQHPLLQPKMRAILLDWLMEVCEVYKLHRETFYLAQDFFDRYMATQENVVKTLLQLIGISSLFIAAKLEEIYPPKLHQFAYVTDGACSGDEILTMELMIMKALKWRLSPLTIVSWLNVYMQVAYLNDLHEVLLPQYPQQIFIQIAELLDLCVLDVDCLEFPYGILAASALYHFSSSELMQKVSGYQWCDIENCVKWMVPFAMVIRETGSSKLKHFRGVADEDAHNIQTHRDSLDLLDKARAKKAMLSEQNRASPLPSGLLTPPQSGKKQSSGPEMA
CDK3/Cyclin E (Homo sapiens), sequence (Q00526 whole entry, looked up): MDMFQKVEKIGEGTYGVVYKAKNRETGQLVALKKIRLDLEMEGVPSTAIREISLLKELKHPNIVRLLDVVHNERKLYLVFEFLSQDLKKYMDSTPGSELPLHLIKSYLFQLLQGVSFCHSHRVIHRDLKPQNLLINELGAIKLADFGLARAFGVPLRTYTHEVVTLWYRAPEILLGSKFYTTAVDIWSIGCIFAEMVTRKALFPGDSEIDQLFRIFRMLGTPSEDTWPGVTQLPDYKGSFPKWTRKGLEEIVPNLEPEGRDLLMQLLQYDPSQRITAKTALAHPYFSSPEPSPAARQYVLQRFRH

[6] = system: SUM149PT; assay: Induction of DNA damage in human SUM149PT cells assessed as increase in gammaH2AX phosphorylation at 250 to 1000 nM incubated for 1 to 24 hrs by western blot analysis; assay type: functional, cell-based; settings: dose 250-1000 nM, time lower 1.0 hrs, time upper […]
[7] = target: Cyclin-Y/Cyclin-dependent kinase 16 (Homo sapiens) (UniProt Q00536+Q8ND76); assay: Inhibition of human recombinant N-terminal GST-tagged CDK16/N-terminal GST-tagged Cyclin Y expressed in HEP Sf9 cells using ATP as substrate at 2 uM measured after 60 mins by ADP-Glo reagent based luminescence analysis
[8] = Cmax in Sprague-Dawley rat at 5 mg/kg, po measured for 24 hrs by LC-MS/MS analysis; assay type: ADME, organism-based; settings: in vivo
[9] = Toxicity against male Sprague-Dawley rat assessed as effect on hematocrit level at 10 to 40 mg/kg, po administered once daily via gavage for 28 days and measured on day 29; assay type: organism-based; settings: in vivo, 696 h, dose 10-40 mg/kg, time 29 day
[10] = system: SUM149PT; assay: Antitumor activity against human SUM149PT cells xenografted in Balb/c mouse assessed as inhibition of tumor growth at 30 mg/kg, po administered once daily via gavage and measured on day 20; assay type: functional; settings: 480 h, time 20 day, read-out: TGI
[11] = Toxicity against male Sprague-Dawley rat assessed as decrease in thymus weight at 10 to 40 mg/kg, po administered once daily via gavage for 28 days and measured on day 29; assay type: organism-based; settings: in vivo, 696 h, dose 10-40 mg/kg, time 29 day
[12] = AUC(0 to t) in female Sprague-Dawley rat at 30 mg/kg, po administered once daily via gavage for 28 days; assay type: ADME, organism-based; settings: in vivo, 672 h, time 28 day
[13] = Toxicity against female Sprague-Dawley rat assessed as effect on chlorine level in blood at 7.5 to 30 mg/kg, po administered once daily via gavage for 28 days and measured on day 29; assay type: organism-based; settings: in vivo, 696 h, dose 7.5-30 mg/kg, time 29 day
[14] = target: Voltage-gated inwardly rectifying potassium channel KCNH2 (Homo sapiens, UniProt Q12809); assay: Inhibition of hERG expressed in CHO cells assessed as inhibition of channel current measured at holding potential of -80 mV by whole cell patch clamp analysis; assay type: toxicity, cell-based
Voltage-gated inwardly rectifying potassium channel KCNH2, sequence (Q12809 whole entry): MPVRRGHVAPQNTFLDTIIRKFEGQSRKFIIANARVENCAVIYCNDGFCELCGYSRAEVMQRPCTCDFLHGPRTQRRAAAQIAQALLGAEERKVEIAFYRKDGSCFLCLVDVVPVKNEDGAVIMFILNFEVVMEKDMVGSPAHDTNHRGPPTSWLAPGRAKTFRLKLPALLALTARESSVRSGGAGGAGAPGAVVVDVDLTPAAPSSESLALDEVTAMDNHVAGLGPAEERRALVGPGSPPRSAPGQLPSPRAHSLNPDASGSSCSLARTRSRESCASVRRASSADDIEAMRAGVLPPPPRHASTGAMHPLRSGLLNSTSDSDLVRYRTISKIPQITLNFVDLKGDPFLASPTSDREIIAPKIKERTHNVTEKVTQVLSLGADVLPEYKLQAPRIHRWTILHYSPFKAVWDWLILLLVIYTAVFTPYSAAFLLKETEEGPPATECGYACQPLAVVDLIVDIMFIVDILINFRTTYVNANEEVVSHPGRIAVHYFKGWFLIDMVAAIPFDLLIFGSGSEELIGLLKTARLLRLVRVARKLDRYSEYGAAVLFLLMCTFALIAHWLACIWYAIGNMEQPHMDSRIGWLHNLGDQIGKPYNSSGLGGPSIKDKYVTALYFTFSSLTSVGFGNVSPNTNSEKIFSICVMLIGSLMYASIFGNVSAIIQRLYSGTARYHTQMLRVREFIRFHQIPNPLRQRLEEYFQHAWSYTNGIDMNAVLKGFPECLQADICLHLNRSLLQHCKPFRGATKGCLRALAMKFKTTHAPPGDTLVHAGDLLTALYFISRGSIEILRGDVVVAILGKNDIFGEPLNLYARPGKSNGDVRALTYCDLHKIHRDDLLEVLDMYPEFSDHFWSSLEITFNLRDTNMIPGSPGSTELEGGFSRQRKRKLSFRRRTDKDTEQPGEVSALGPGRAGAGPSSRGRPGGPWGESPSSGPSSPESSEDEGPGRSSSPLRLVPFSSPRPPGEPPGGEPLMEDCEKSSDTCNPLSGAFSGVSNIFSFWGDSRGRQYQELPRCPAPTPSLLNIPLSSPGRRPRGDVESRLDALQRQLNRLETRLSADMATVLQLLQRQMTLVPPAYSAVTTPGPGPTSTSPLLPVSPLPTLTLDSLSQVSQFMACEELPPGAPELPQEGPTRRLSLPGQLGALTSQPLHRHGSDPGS

[15] = Ratio of drug level in tumor to plasma in Balb/c mouse xenografted with human SUM149PT cells at 60 mg/kg, po administered via gavage and measured after 2 hrs; assay type: ADME, organism-based
[16] = Cmax in female Sprague-Dawley rat at 7.5 mg/kg, po administered once daily via gavage for 28 days; assay type: ADME, organism-based; settings: in vivo, time 28 day
[17] = Half life in male Sprague-Dawley rat at 20 mg/kg, po administered once daily via gavage for 28 days; assay type: ADME, organism-based; settings: in vivo, time 28 day
[18] = AUC(0 to t) in female Sprague-Dawley rat at 7.5 mg/kg, po administered via gavage and measured on day 1; assay type: ADME, organism-based; settings: in vivo, 24 h, time 1 day
[19] = AUC in Balb/c mouse xenografted with human MV4-11 cells at 30 mg/kg, po administered once daily via gavage; assay type: ADME, organism-based; settings: in vivo
[20] = system: HCT-116; assay: Antiproliferative activity against human HCT-116 cells assessed as reduction in cell viability incubated for 7 days by CellTiter-Glo reagent based luminescence analysis; assay type: functional; settings: HCT-116, 168 h
[21] = AUC(0 to t) in male Sprague-Dawley rat at 40 mg/kg, po administered once daily via gavage for 28 days; assay type: ADME, organism-based; settings: in vivo, 672 h, time 28 day
[22] = Toxicity against male Sprague-Dawley rat assessed as effect on creatinine level in blood at 10 to 40 mg/kg, po administered once daily via gavage for 28 days and measured on day 29; assay type: organism-based; settings: in vivo, 696 h, dose 10-40 mg/kg, time 29 day
[23] = target: Cytochrome P450 1A2 (Homo sapiens, UniProt P05177); assay: Inhibition of CYP1A2 in human liver microsomes assessed as inhibition of phenacetin-O-deethylation incubated for 10 mins in presence of NADPH by LC-MS/MS analysis; assay type: ADME, Microsome
Cytochrome P450 1A2, sequence (P05177 whole entry): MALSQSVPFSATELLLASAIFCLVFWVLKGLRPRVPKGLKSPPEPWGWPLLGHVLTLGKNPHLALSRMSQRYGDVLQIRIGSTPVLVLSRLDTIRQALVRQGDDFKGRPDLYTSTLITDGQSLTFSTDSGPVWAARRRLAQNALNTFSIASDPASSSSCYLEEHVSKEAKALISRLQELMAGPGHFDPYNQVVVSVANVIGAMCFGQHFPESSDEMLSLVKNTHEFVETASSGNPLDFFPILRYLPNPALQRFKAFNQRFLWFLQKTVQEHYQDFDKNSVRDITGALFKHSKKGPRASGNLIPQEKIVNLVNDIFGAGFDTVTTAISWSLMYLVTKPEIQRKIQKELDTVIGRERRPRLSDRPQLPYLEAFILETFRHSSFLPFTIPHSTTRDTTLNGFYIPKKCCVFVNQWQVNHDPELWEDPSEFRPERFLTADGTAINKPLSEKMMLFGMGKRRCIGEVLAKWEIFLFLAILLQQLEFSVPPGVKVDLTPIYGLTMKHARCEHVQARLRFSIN

[24] = Protein binding in human plasma assessed as free fraction at 400 uM incubated for 4 hrs by equilibrium dialysis method based LC-MS/MS analysis; assay type: ADME, cell-free
[25] = target: CDK6/cyclin D1 (Homo sapiens) (UniProt P24385+Q00534); assay: Inhibition of human recombinant N-terminal GST-tagged CDK6/N-terminal GST-tagged and C-terminal 6X His-tagged Cyclin D1 expressed in HEP Sf9 cells using ATP as substrate at 2 uM measured after 60 mins by ADP-Glo reagent based luminescence analysis
[26] = Cmax in female Sprague-Dawley rat at 30 mg/kg, po administered via gavage and measured on day 1; assay type: ADME, organism-based; settings: in vivo, time 1 day
[27] = Half life in female Sprague-Dawley rat at 7.5 mg/kg, po administered via gavage and measured on day 1; assay type: ADME, organism-based; settings: in vivo, time 1 day
[28] = Permeability of the compound in human Caco-2 cells at 2 uM incubated for 2 hrs by LC-MS/MS analysis; assay type: ADME, cell-based; settings: read-out: permeability
[29] = Toxicity against female Sprague-Dawley rat assessed as decrease in thymus weight at 7.5 to 30 mg/kg, po administered once daily via gavage for 28 days and measured on day 29; assay type: organism-based; settings: in vivo, 696 h, dose 7.5-30 mg/kg, time 29 day
[30] = Toxicity against female Sprague-Dawley rat assessed as effect on blood urea nitrogen level at 7.5 to 30 mg/kg, po administered once daily via gavage for 28 days and measured on day 29; assay type: organism-based; settings: in vivo, 696 h, dose 7.5-30 mg/kg, time 29 day
[31] = AUC in Balb/c mouse xenografted with human SUM149PT cells at 60 mg/kg, po administered once daily via gavage; assay type: ADME, organism-based; settings: in vivo
[32] = Ratio of drug level in tumor to plasma in Balb/c mouse xenografted with human SUM149PT cells at 30 mg/kg, po administered via gavage and measured after 2 hrs; assay type: ADME, organism-based
[33] = target: Cyclin-dependent kinase 9 (Homo sapiens) (UniProt P50750); assay: Inhibition of CDK9 in human SUM149PT cells assessed as reduction in level of phosphorylation of Ser7 on RNA Pol II CTD at 500 nM incubated for 12 hrs followed by drug wash-out and measured after 72 hrs by western blot analysis; assay type: cell-based
Cyclin-dependent kinase 9 (Homo sapiens), sequence (P50750 whole entry): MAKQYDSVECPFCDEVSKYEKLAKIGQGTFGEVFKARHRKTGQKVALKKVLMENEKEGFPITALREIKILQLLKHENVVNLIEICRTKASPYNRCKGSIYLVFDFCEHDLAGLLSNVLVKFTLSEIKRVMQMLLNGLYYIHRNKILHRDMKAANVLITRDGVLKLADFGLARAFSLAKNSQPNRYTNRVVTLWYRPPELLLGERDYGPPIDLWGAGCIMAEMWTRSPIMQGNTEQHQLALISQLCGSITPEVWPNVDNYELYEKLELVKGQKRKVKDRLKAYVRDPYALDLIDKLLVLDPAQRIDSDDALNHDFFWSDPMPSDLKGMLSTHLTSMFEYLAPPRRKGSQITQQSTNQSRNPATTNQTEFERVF

[34] = Half life in female Sprague-Dawley rat at 7.5 mg/kg, po administered once daily via gavage for 28 days; assay type: ADME, organism-based; settings: in vivo, time 28 day

- IC50 [1]: > 50 µM
- Vd [3]: 0.72 L/kg
- Cmax [4]: 1350 ng/mL
- inhibition [5]: 46%
- inhibition [7]: 64%
- Cmax [8]: 808 ng/mL
- AUCt [12]: 7860 ng·h/mL
- Kp at 2 h [15]: 0.42
- Cmax [16]: 800 ng/mL
- half-life [17]: 4.2 h
- AUCt [18]: 1640 ng·h/mL
- AUC [19]: 4190 ng·h/mL
- IC50 [20]: 0.128 µM
- AUCt [21]: 6070 ng·h/mL
- IC50 [23]: > 50 µM
- fraction unbound at 4 h, 400 µM [24]: 0.127
- inhibition [25]: 56%
- Cmax [26]: 2200 ng/mL
- half-life [27]: 2 h
- Papp at 2 h, 2 µM [28]: 4.6 ×10⁻⁶ cm/s
- AUC [31]: 4620 ng·h/mL
- Kp at 2 h [32]: 0.38
- inhibition [33]: inactive
- half-life [34]: 2 h
SMILES: C=CC(=O)N1CCc2c(ncnc2N2CC[C@@H](Nc3ncc(Cl)c(OC)n3)C2)C1
- Activity [2]: Non-toxic
- Activity [6]: Active
- Activity [9]: Non-toxic
- inhibition in vivo at 30 mg/kg [10]: 101%
- Activity [11]: Toxic
- Activity [13]: Non-toxic
- IC50 [14]: > 30 µM
- Activity [22]: Non-toxic
- Activity [29]: Toxic
- Activity [30]: Non-toxic
